Where a name gives a salt, the structure may show the parent alone.

Our source for the IC50 values is patent US20120309739A1, “AKT / PKB INHIBITORS” (ALMAC DISCOVERY LIMITED, priority 2009, published 2012).

Type in all cases: biochemical
The target of one experiment is T1, AKT1 (Homo sapiens, UniProt P31749).
T1 construct: purchased SignalChem
Kind of experiment: AKT Kinase Assay (IMAP fluorescent polarisation) vs AKT1. The note with it: activated AKT1, FAM Crosstide substrate. On the procedure: (§1) Testing of the compounds was performed using an AKT Kinase Assay:
(§2) Activated AKT isoforms 1, 2 and 3 were assayed utilising a 5′ FAM Crosstide (Seq. GRPRTSSFAEG-OH). The extent of kinase phosphorylation was determined by fluorescent polarisation using IMAP progressive binding reagent, which introduces binding beads which allow the reagent to specifically bind to phosphate residues via covalent co-ordination complex bonds.
(§3) iMAP binding solution stops Crosstide/kinase interaction and specifically binds phosphorylated substrates. The degree of phosphorylation is determined by fluorescent polarisation (excitation 485 nm; emission 528 nm) or the reduction in speed of rotation of the excited substrate.
(§4) The following materials were used in the assay: • a) Activated AKT isoforms (SignalChem.) dissolved in Complete Reaction buffer at a pre-determined concentration selected so that the assay was carried out in the linear range. • b) AKT substrate peptide: FAM Crosstide (R7110) Molecular Devices, diluted in complete reaction buffer. • c) iMAP Progressive Screening Express Kit (R8127) Molecular Devices • d) Complete Reaction Buffer containing 0.1% BSA, 10 mM Tris-HCl, 10 mM MgCl2, 0.05% NaN3 and 0.01% phosphate free BSA, 1 mM DTT • e) Progressive Binding Solution containing 75% Buffer A, 25% Buffer B and low volume Binding Reagent which contains the binding entity for the assay • f) ATP diluted in complete reaction buffer • g) Black polystyrene 384 well assay plates (Nunc). • h) Biotek Synergy 4 Hybrid Plate reader.
(§5) 50 μl of test compound was dissolved in DMSO (Sigma Aldrich) and serially diluted in complete reaction buffer to give a fourteen point half log dose response and plated into 384 well black plates. The compound was incubated at room temperature with activated AKT isoform ([…]) at the pre-determined concentration, for 45 minutes.
(§6) […] of ATP solution mixed with 2.5 μl of AKT substrate peptide (FAM Crosstide (R7110) Molecular Devices) were dispensed into each well and the plate centrifuged at 1000 rpm for 20 seconds to ensure homogenous mixing of reagents. The reaction mix was incubated in the dark for one hour at room temperature.
(§7) The kinase reaction was stopped by the addition of Progressive Binding Solution and the mixture allowed to equilibrate for one hour in the dark, at room temperature.
(§8) The fluorescent polarisation generated in each well was determined using a […] Synergy 4 Hybrid plate reader. In brief, each reaction solution was excited at 485 nm with the emission measured at 528 nm in both the parallel and perpendicular pathway.
(§9) The polarisation value generated in each well was calculated by Gen5 software (Biotek) and the % inhibition of kinase activity compared to vehicle control was calculated via GraphPad Prism. IC50 values for each compound were calculated by non-linear regression analysis using Prism software.
(§10) All plates were internally controlled by two methods. Firstly, by calculating the signal:noise ratio; based on kinase polarisation without inhibitor and polarisation generated by complete reaction buffer in the absence of activated kinase. Secondly by determining IC50 values generated by known inhibitors of the AKT isoforms.

A further experiment deals with T2, AKT2 (Homo sapiens, UniProt P31751).
T2 construct: purchased SignalChem
T2 sequence (P31751 whole entry): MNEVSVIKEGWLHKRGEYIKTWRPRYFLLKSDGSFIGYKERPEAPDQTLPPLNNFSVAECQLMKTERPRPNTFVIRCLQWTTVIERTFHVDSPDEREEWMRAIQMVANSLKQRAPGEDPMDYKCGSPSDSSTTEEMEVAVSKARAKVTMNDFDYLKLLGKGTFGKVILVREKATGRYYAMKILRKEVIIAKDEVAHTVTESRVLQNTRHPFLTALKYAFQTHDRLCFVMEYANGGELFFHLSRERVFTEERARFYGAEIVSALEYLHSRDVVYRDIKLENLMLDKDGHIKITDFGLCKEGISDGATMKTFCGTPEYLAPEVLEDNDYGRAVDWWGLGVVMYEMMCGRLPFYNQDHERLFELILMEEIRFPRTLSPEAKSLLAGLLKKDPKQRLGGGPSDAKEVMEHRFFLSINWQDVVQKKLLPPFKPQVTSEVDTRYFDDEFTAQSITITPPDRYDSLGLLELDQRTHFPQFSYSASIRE
Kind of experiment: AKT Kinase Assay (IMAP fluorescent polarisation) vs AKT2. The settings on record: activated AKT2, FAM Crosstide substrate. On the procedure:
as §1, §2, §3, §4, §5, §6, §7, §8, §9, §10

The target in another experiment is T3, AKT3 (Homo sapiens, UniProt Q9Y243).
T3 construct: purchased SignalChem
T3 sequence (Q9Y243 whole entry): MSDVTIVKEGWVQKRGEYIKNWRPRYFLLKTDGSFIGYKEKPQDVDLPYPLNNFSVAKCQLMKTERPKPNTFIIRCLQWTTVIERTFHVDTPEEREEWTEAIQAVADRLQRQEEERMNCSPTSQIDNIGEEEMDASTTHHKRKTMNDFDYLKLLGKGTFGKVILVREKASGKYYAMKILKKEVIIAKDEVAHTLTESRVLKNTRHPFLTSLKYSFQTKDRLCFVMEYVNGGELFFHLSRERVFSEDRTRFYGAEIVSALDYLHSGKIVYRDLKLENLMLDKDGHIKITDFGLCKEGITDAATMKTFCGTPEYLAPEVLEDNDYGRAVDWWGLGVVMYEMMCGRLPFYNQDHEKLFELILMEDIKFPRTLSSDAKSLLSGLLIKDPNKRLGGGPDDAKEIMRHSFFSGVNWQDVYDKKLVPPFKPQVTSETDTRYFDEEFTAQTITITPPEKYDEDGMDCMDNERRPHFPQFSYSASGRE
As to the kind of experiment: AKT Kinase Assay (IMAP fluorescent polarisation) vs AKT3. The settings on record: activated AKT3, FAM Crosstide substrate. The method, then:
as §1, §2, §3, §4, §5, §6, §7, §8, §9, §10

T1 sequence (P31749 whole entry): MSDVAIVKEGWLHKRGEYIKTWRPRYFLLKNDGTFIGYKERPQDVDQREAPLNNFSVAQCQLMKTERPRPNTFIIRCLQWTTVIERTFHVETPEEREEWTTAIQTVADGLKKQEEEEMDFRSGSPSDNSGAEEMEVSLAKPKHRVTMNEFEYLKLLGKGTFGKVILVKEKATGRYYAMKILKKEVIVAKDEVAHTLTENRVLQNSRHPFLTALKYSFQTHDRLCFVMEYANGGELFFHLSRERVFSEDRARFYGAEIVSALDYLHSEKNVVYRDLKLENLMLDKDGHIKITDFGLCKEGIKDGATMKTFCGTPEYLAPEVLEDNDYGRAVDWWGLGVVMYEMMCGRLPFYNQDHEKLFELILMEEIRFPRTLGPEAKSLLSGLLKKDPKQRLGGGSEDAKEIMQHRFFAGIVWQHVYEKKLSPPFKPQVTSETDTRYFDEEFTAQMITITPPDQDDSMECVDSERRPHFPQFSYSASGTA

For `NC1(c2ccc(-c3oc4cnccc4c3-c3ccccc3)cc2)CCC1` [Example 2, 1-(4-(3-Phenylfuro[2,3-c]pyridin-2-yl)phenyl)cyclobutanamine], the IC50 was above 10 µM on AKT1, 1 to 10 µM on AKT2 and above 10 µM at AKT3.
On to `NC1(c2ccc(-c3oc4cnccc4c3I)cc2)CCC1` [Example 3, 1-(4-(3-Iodofuro[2,3-c]pyridin-2-yl)phenyl)cyclobutanamine], for which the IC50 at AKT1, at AKT2 and at AKT3 was 1 to 10 µM each time.
`Cn1ccc2oc(-c3ccc(C4(N)CCC4)cc3)c(-c3ccccc3)c2c1=O` [Example 4, 2-(4-(1-Aminocyclobutyl)phenyl)-5-methyl-3-phenylfuro[3,2-c]pyridin-4(5H)-one]: the IC50 was 0.1 to 1 µM at AKT1, 1 to 10 µM at AKT2 and above 10 µM on AKT3.
Take `NC(=O)c1ccc2c(-c3ccccc3)c(-c3ccc(C4(N)CCC4)cc3)oc2c1` [Example 5, 2-(4-(1-Aminocyclobutyl)phenyl)-3-phenylbenzofuran-6-carboxamide]: the IC50 on AKT1 was 1 to 10 µM; on AKT2, 1 to 10 µM; on AKT3, above 10 µM.
In the case of `N#Cc1ccc2oc(-c3ccc(C4(N)CCC4)cc3)c(-c3ccccc3)c2c1` [Example 6, 2-(4-(1-Aminocyclobutyl)phenyl)-3-phenylbenzofuran-5-carbonitrile], the IC50 at AKT1 was 1 to 10 µM; at AKT2, 1 to 10 µM; on AKT3 it was above 10 µM.
As for `NC(=O)c1ccc2oc(-c3ccc(C4(N)CCC4)cc3)c(-c3ccccc3)c2c1` [Example 7, 2-(4-(1-Aminocyclobutyl)phenyl)-3-phenylbenzofuran-5-carboxamide], the IC50 at AKT1 is 0.1 to 1 µM; at AKT2, 0.1 to 1 µM; on AKT3 it was above 10 µM.
Consider `N#Cc1cccc2c(-c3ccccc3)c(-c3ccc(C4(N)CCC4)cc3)oc12` [Example 8, 2-(4-(1-Aminocyclobutyl)phenyl)-3-phenylbenzofuran-7-carbonitrile], for which the IC50 was 1 to 10 µM on AKT1, 1 to 10 µM on AKT2 and above 10 µM at AKT3.
As to `NC(=O)c1cccc2c(-c3ccccc3)c(-c3ccc(C4(N)CCC4)cc3)oc12` [Example 9, 2-(4-(1-Aminocyclobutyl)phenyl)-3-phenylbenzofuran-7-carboxamide.2HCl], the IC50 on AKT1 was 1 to 10 µM; at AKT2, 1 to 10 µM; at AKT3, above 10 µM.
`NC1(c2ccc(-c3oc4ncc(Br)cc4c3-c3ccccc3)cc2)CCC1` [Example 11, 1-(4-(5-Bromo-3-phenylfuro[2,3-b]pyridin-2-yl)phenyl)cyclobutanamine.HCl]: the IC50 at AKT1, at AKT2 and on AKT3 was above 10 µM throughout.
Regarding `COc1nc(N2CCOCC2)nc2oc(-c3ccc(C4(N)CCC4)cc3)c(-c3ccccc3)c12` [Example 13, 1-(4-(4-Methoxy-2-morpholino-5-phenylfuro[2,3-d]pyrimidin-6-yl)phenyl)cyclobutanamine], the figures for the IC50 at AKT1, at AKT2 and on AKT3 were 1 to 10 µM, 0.1 to 1 µM and 1 to 10 µM, respectively.
For the molecule `COc1nc(NCCN(C)C)nc2oc(-c3ccc(C4(N)CCC4)cc3)c(-c3ccccc3)c12` [Example 14, N^1-(6-(4-(1-Aminocyclobutyl)phenyl)-4-methoxy-5-phenylfuro[2,3-d]pyrimidin-2-yl)-N^2,N^2-dimethylethane-1,2-diamine], the figures for the IC50 on AKT1, on AKT2 and on AKT3 were 0.1 to 1 µM, 0.1 to 1 µM and 1 to 10 µM, respectively.
Take `NC1(c2ccc(-c3sc4nc[nH]c(=O)c4c3-c3ccccc3)cc2)CCC1` [Example 16, 6-(4-(1-Aminocyclobutyl)phenyl)-5-phenylthieno[2,3-d]pyrimidin-4(3H)-one]: the IC50 at AKT1 is 1 to 10 µM; on AKT2, 0.1 to 1 µM; at AKT3, 1 to 10 µM.
For `COc1nccc2oc(-c3ccc(C4(N)CCC4)cc3)c(-c3ccccc3)c12` [Example 17, 1-(4-(4-Methoxy-3-phenylfuro[3,2-c]pyridin-2-yl)phenyl)cyclobutanamine], the IC50 at AKT1 is 1 to 10 µM; on AKT2, 1 to 10 µM; on AKT3, above 10 µM.
For the molecule `NC1(c2ccc(-c3oc4cc[nH]c(=O)c4c3-c3ccccc3)cc2)CCC1` [Example 18, 2-(4-(1-Aminocyclobutyl)phenyl)-3-phenylfuro[3,2-c]pyridin-4(5H)-one], the IC50 is 0.1 to 1 µM at AKT1, 1 to 10 µM at AKT2 and above 10 µM at AKT3.
Turning to `NC1(c2ccc(-c3oc4ncccc4c3-c3ccccc3)cc2)CCC1` [Example 19, 1-(4-(3-Phenylfuro[2,3-b]pyridin-2-yl)phenyl)cyclobutanamine], the IC50 at AKT1, at AKT2 and at AKT3 was above 10 µM in each case.
In the case of `NC1(c2ccc(-c3oc4ncncc4c3-c3ccccc3)cc2)CCC1` [Example 20, 1-(4-(5-Phenylfuro[2,3-d]pyrimidin-6-yl)phenyl)cyclobutanamine], the IC50 is 1 to 10 µM at AKT1, 1 to 10 µM on AKT2 and above 10 µM on AKT3.
In the case of `NC1(c2ccc(-c3oc4ncc([N+](=O)[O-])cc4c3-c3ccccc3)cc2)CCC1` [Example 21, 1-(4-(5-Nitro-3-phenylfuro[2,3-b]pyridin-2-yl)phenyl)cyclobutanamine], the IC50 at AKT1 is 1 to 10 µM; at AKT2 it was 1 to 10 µM; at AKT3, above 10 µM.
Take `Nc1cnc2oc(-c3ccc(C4(N)CCC4)cc3)c(-c3ccccc3)c2c1` [Example 22, 2-(4-(1-Aminocyclobutyl)phenyl)-3-phenylfuro[2,3-b]pyridin-5-amine]: the results for the IC50 on AKT1, at AKT2 and at AKT3 were 1 to 10 µM, 1 to 10 µM and above 10 µM, respectively.
Consider `NC1(c2ccc(-c3c(-c4ccccc4)oc4cccnc34)cc2)CCC1` [Example 23, 1-(4-(2-Phenylfuro[3,2-b]pyridin-3-yl)phenyl)cyclobutanamine], for which the IC50 at AKT1, at AKT2 and on AKT3 was above 10 µM throughout.
With `N#Cc1ccc2c(-c3ccccc3)c(-c3ccc(C4(N)CCC4)cc3)oc2c1` [Example 25, 2-(4-(1-Aminocyclobutyl)phenyl)-3-phenylbenzofuran-6-carbonitrile], the IC50 at AKT1 was 1 to 10 µM; on AKT2, 1 to 10 µM; on AKT3, above 10 µM.
As for `COc1nc(N(C)C)nc2oc(-c3ccc(C4(N)CCC4)cc3)c(-c3ccccc3)c12` [Example 26, 6-(4-(1-Aminocyclobutyl)phenyl)-4-methoxy-N,N-dimethyl-5-phenylfuro[2,3-d]pyrimidin-2-amine], the figures for the IC50 on AKT1, at AKT2 and at AKT3 were 0.1 to 1 µM, 1 to 10 µM and above 10 µM, respectively.
In the case of `COc1nc(N2CC(CN)C2)nc2oc(-c3ccc(C4(N)CCC4)cc3)c(-c3ccccc3)c12` [Example 27, 1-(4-(2-(3-(Aminomethyl)azetidin-1-yl)-4-methoxy-5-phenylfuro[2,3-d]pyrimidin-6-yl)phenyl)cyclobutanamine], the IC50 at AKT1 lay in the range of 0.1 to 1 µM; on AKT2 it was 0.1 to 1 µM; on AKT3 it was 1 to 10 µM.
Regarding `NC1(c2ccc(-c3oc4ncc(N5CCOCC5)cc4c3-c3ccccc3)cc2)CCC1` [Example 28, 1-(4-(5-Morpholino-3-phenylfuro[2,3-b]pyridin-2-yl)phenyl)cyclobutanamine], the IC50 on AKT1 is above 10 µM; on AKT2, 1 to 10 µM; at AKT3 it was above 10 µM.
As to `NC1(c2ccc(-c3oc4ccccc4c(=O)c3-c3ccccc3)cc2)CCC1` [Example 29, 2-[4-(1-Amino-cyclobutyl)-phenyl]-3-phenyl-chromen-4-one hydrogen chloride*], the IC50 at AKT1 was 1 to 10 µM; at AKT2, 1 to 10 µM; at AKT3, above 10 µM.
`N#Cc1cccc2c(-c3ccccc3)c(-c3ccc(C4(N)CNC4)cc3)oc12` [Example 30, 2-(4-(3-Aminoazetidin-3-yl)phenyl)-3-phenylbenzofuran-7-carbonitrile]: the figures for the IC50 on AKT1, on AKT2 and at AKT3 were 0.1 to 1 µM, above 10 µM and above 10 µM, respectively.
